Source: patent publication US20100075965A1, “PI3 KINASE INHIBITORS AND METHODS OF THEIR USE” (Novartis AG, priority 2006, published 2010)
Read-outs that look alike come from different tables or passages of the source. Values belong to the molecule of their own block, whether it stands above or below them.

What was measured:
[1] = tested on: A2780 cells; assay: Viability assay in A2780 (Cell Titer Glo); assay type: cell-based, human; details: A2780 cells, read-out: A2780 Cell prolif. EC50
Experimental: Cell viability was assessed with Cell Titer Glo assay, Promega. Cells were seeded in TC treated 96-well plates at a density of 1,000 (A2780 cells) per well in DMEM with 10% FBS, 1% Sodium Pyruvate, and 1% Penicillin Streptomycin for a minimum of 2 hrs prior to addition of compound. Test compounds were serially diluted (3 fold) in DMSO to 500× the final concentration. For each concentration of test compound, 2 μL (500×) aliquots of compound or 100% DMSO (control) were diluted in 500 μL of culture medium to 2× final concentration then diluted 1× on the cells. Cells were incubated for 72 hrs at 37° C., 5% CO2. After which Cell Titer Glo is added to determine viable cells, the assay was performed according to the manufacturer's instruction (Promega Corporation, Madison, Wis. USA). Each experimental condition was performed in duplicate. Raw data was imported in Abase and EC50s calculated with XL-fit data analysis software and are shown in Tables 1 and 2 in the column labeled “A2780 Cell prolif. EC50”.

[2] = biological target: PI3 K Alpha (Homo sapiens, UniProt P42336); assay: PI3 kinase phosphorylation assays (homogenous solution phase, one step solid phase, ATP depletion/KinaseGlo); assay type: biochemical
Experimental: Compounds to be tested are dissolved in DMSO and directly distributed into 384-well flashplates at 1.25 μL per well. To start the reaction, 20 μL of 6 nM PI3 kinase are added into each well followed by 20 μL of 400 nM ATP containing a trace of radiolabeled ATP and 900 nM 1-alpha-phosphatidylinositol (PI). The plates are briefly centrifuged to remove any air gap. The reaction is performed for 15 minutes and then stopped by the addition of 20 μL of 100 mM EDTA. The stopped reaction is incubated overnight at RT to allow the lipid substrate to bind by hydrophobic interaction to the surface of the flashplate. The liquid in the wells is then washed away, and the labeled substrate is detected with scintillation counting.
This method is similar to Assay 1 except that the lipid substrate (1-alpha-phosphatidylinositol (PI)) is first dissolved in a coating buffer and incubated on flashplate at room temperature overnight to allow the lipid substrate to bind by hydrophobic interaction to the surface of the flashplate. Unbound substrate is then washed away. On the day of assay, 20 μL of 6 nM PI3 kinase are added into each well followed by 20 μL of 400 nM ATP containing trace of radiolabeled ATP. Compounds are added together with enzyme and ATP to the lipid-coated plates. The plates are briefly centrifuged to remove any air gap. The reaction is performed for two to three hours. The reaction is stopped by addition of 20 μL of 100 mM EDTA or by immediate plate washing. Phosphorylated lipid substrate is detected by scintillation counting.
Compounds to be tested are dissolved in DMSO and directly distributed into a black 384-well plate at 1.25 μL per well. To start the reaction, 25 μL of 10 nM PI3 kinase and 5 μg/mL 1-alpha-phosphatidylinositol (PI) are added into each well followed by 25 μL of 2 μM ATP. The reaction is performed until approx 50% of the ATP is depleted, and then stopped by the addition of 25 μL of KinaseGlo solution. The stopped reaction is incubated for 5 minutes and the remaining ATP is then detected via luminescence.

[3] = ATP depletion assay, read-out: PI3 K Alpha IC50

PI3 K Alpha, sequence (P42336 whole entry): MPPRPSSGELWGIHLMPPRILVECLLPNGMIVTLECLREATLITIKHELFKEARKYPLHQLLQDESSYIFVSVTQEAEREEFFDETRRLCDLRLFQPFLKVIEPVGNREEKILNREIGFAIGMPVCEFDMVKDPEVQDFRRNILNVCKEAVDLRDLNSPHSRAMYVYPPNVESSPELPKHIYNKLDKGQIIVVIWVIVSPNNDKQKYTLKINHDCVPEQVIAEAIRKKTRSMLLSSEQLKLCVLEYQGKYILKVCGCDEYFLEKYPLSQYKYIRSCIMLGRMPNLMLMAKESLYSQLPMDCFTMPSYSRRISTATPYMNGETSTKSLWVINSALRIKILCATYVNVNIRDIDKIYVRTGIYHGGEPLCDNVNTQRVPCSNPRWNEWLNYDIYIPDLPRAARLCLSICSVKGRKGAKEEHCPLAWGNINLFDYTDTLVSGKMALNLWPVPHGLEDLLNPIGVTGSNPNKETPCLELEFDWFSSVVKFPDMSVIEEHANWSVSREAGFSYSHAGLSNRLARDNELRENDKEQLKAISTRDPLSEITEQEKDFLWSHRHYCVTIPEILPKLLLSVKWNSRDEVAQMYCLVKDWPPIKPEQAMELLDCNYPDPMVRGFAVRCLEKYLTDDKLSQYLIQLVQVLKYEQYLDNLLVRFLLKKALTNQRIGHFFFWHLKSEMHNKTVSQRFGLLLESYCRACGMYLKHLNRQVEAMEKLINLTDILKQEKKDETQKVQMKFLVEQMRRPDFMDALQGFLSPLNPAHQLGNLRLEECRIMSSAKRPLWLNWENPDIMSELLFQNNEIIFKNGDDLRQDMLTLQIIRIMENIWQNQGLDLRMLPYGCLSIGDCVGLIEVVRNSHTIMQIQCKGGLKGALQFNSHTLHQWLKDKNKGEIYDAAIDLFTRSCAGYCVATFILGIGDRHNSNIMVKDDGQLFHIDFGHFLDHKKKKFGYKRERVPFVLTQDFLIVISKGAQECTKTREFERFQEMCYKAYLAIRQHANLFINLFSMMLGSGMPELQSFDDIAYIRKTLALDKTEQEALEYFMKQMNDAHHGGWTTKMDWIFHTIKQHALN
PI3 K Alpha, sequence (P27986 whole entry partner): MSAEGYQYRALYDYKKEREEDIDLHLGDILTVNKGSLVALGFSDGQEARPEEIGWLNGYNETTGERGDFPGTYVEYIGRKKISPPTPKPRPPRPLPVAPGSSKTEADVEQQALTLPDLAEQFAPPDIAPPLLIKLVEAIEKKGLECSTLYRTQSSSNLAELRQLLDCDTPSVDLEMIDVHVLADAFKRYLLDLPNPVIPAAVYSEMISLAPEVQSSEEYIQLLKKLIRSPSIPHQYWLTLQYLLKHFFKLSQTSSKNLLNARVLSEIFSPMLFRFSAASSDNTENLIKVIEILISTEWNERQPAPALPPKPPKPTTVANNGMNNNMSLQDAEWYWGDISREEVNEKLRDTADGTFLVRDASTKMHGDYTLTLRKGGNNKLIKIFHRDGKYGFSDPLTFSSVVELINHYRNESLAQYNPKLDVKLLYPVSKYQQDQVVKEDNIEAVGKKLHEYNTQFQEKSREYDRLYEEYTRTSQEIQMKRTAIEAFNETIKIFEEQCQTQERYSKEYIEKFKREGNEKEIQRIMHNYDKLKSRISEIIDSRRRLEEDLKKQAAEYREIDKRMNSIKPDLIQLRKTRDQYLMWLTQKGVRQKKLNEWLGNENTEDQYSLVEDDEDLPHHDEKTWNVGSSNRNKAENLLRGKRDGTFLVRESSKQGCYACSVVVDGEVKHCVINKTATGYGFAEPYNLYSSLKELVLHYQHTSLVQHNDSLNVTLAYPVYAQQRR

EC50 ([1]; Homo sapiens, 72 hrs): < 25 µM
IC50 [2, 3]: < 1 µM
SMILES: CC(=O)Nc1nc2ccc(-c3cnc(N)nc3C(F)(F)F)cc2s1 [Example 2-13, N-[6-(2-Amino-4-trifluoromethyl-pyrimidin-5-yl)-benzothiazol-2-yl]-acetamide]

EC50 ([1]; Homo sapiens, 72 hrs): < 25 µM
IC50 [2, 3]: < 1 µM
SMILES: CC(=O)Nc1nc2cc(C)c(-c3cnc(N)c(C(F)(F)F)c3)cc2s1 [Example 2-28, N-[6-(6-Amino-5-trifluoromethyl-pyridin-3-yl)-5-methyl-benzothiazol-2-yl]-acetamide]

EC50 ([1]; Homo sapiens, 72 hrs): < 25 µM
IC50 [2, 3]: < 1 µM
SMILES: CC(=O)Nc1nc2cc(F)c(-c3cnc(N)c(C(F)(F)F)c3)cc2s1 [Example 2-29, N-[6-(6-Amino-5-trifluoromethyl-pyridin-3-yl)-5-fluoro-benzothiazol-2-yl]-acetamide]

EC50 ([1]; Homo sapiens): < 25 µM
SMILES: CC(C)C(=O)Nc1cn2cc(-c3cnc(N)c(C(F)(F)F)c3)ccc2n1 [Example 278, N-(6-(6-amino-5-(trifluoromethyl)pyridin-3-yl)imidazo[1,2-a]pyridin-2-yl)isobutyramide]

Second part, the molecule before the results:

SMILES: COc1ccc(C2CCCN2C(=O)Nc2cn3cc(-c4cnc(N)c(C(F)(F)F)c4)ccc3n2)cc1OC (centres unmarked) [Example 276, N-(6-(6-amino-5-(trifluoromethyl)pyridin-3-yl)imidazo[1,2-a]pyridin-2-yl)-2-(3,4-dimethoxyphenyl) pyrrolidine-1-carboxamide]
IC50 ([2]; read-out: PI3K Alpha IC50): < 1 µM

SMILES: COc1ccccc1C1CCCN1C(=O)Nc1cn2cc(-c3cnc(N)c(C(F)(F)F)c3)ccc2n1 (centres unmarked) [Example 277, N-(6-(6-amino-5-(trifluoromethyl)pyridin-3-yl)imidazo[1,2-a]pyridin-2-yl)-2-(2-methoxyphenyl) pyrrolidine-1-carboxamide]
IC50 ([2]; read-out: PI3K Alpha IC50): < 1 µM

SMILES: CC(C)(C)OC(=O)N1CCC1C(=O)Nc1cn2nc(-c3cnc(N)c(C(F)(F)F)c3)ccc2n1 (centres unmarked) [Example 279, tert-butyl 2-(6-(6-amino-5-(trifluoromethyl)pyridin-3-yl)imidazo[1,2-b]pyridazin-2-ylcarbamoyl) azetidine-1-carboxylate]
EC50 [1]: < 25 µM

SMILES: CC(=O)Nc1cn2cc(-c3cnc(N)c(OC4CCNCC4)n3)ccc2n1 [Example 280, N-(6-(5-amino-6-(piperidin-4-yloxy)pyrazin-2-yl)imidazo[1,2-a]pyridin-2-yl)acetamide]
EC50 ([1]; Homo sapiens): < 25 µM

SMILES: CNC(=O)[C@@H]1CCCN1C(=O)Nc1cn2cc(-c3cnc(N)c(C(F)(F)F)c3)ccc2n1 [Example 281, (S)-N1-(6-(6-amino-5-(trifluoromethyl)pyridin-3-yl)imidazo[1,2-a]pyridin-2-yl)-N2-methylpyrrolidine-1,2-dicarboxamide]
EC50 ([1]; Homo sapiens): < 25 µM

SMILES: CC(=O)N1CCCC[C@H]1C(=O)Nc1cn2cc(-c3cnc(N)c(C(F)(F)F)c3)ccc2n1 [Example 282, (S)-1-acetyl-N-(6-(6-amino-5-(trifluoromethyl)pyridin-3-yl)imidazo[1,2-a]pyridin-2-yl)piperidine-2-carboxamide]
EC50 ([1]; Homo sapiens): < 25 µM

SMILES: CC(=O)Nc1cn2nc(-c3cnc(N)c(OCC(F)(F)F)n3)ccc2n1 [Example 284, N-(6-(5-amino-6-(2,2,2-trifluoroethoxy)pyrazin-2-yl)imidazo[1,2-b]pyridazin-2-yl)acetamide]
EC50 ([1]; Homo sapiens): < 10 µM

SMILES: NC(=O)[C@@H]1CCCN1C(=O)Nc1cn2cc(-c3cnc(N)c(C(F)(F)F)c3)ccc2n1 [Example 285, (S)-N1-(6-(6-amino-5-(trifluoromethyl)pyridin-3-yl)imidazo[1,2-a]pyridin-2-yl)pyrrolidine-1,2-dicarboxamide]
EC50 ([1]; Homo sapiens): < 10 µM

SMILES: CCN1CCC(Oc2nc(-c3ccc4nc(NC(C)=O)cn4c3)cnc2N)CC1 [Example 286, N-(6-(5-amino-6-(1-ethylpiperidin-4-yloxy)pyrazin-2-yl)imidazo[1,2-a]pyridin-2-yl)acetamide]
EC50 ([1]; Homo sapiens): < 10 µM

SMILES: COCCOc1nc(-c2ccc3nc(NC(C)=O)cn3n2)cnc1N [Example 287, N-(6-(5-amino-6-(2-methoxyethoxy)pyrazin-2-yl)imidazo[1,2-b]pyridazin-2-yl)acetamide]
EC50 ([1]; Homo sapiens): < 10 µM
